Measurements: ChEMBL document CHEMBL1138861, “Design, synthesis, and biological evaluation of phenylamino-substituted 6,11-dihydro-dibenzo[b,e]oxepin-11-ones and dibenzo[a,d]cycloheptan-5-ones: novel p38 MAP kinase inhibitors” (J Med Chem, 2006)

Columns and labels:
[1] = biological target: Mitogen-activated protein kinase 14 (Homo sapiens, UniProt Q16539)
[2] = biological target: CYP2D6 (Homo sapiens, UniProt P10635); assay: Inhibition of CYP2D6 at 10 uM; type: ADME
[3] = biological target: CYP2C19 (Homo sapiens, UniProt P33261); assay: Inhibition of CYP2C19 at 10 uM; type: ADME
Sequence of CYP2C19 (P33261 whole entry): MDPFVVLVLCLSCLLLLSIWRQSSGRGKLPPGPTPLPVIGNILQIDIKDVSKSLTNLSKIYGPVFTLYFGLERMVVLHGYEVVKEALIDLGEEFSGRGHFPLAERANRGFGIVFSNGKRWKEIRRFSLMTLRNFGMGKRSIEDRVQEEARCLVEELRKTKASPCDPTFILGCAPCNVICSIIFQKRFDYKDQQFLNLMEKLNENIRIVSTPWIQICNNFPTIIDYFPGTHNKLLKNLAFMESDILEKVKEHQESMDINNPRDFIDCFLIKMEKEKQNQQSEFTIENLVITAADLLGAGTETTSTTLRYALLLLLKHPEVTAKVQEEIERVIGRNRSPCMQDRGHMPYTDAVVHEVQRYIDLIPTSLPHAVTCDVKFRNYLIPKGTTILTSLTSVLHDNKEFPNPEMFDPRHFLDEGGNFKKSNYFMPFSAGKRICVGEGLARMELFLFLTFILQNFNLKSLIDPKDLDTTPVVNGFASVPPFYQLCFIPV

[4] = biological target: CYP3A4 (Homo sapiens, UniProt P08684); assay: Inhibition of CYP3A4 at 10 uM; type: ADME
Sequence of CYP3A4 (P08684 whole entry): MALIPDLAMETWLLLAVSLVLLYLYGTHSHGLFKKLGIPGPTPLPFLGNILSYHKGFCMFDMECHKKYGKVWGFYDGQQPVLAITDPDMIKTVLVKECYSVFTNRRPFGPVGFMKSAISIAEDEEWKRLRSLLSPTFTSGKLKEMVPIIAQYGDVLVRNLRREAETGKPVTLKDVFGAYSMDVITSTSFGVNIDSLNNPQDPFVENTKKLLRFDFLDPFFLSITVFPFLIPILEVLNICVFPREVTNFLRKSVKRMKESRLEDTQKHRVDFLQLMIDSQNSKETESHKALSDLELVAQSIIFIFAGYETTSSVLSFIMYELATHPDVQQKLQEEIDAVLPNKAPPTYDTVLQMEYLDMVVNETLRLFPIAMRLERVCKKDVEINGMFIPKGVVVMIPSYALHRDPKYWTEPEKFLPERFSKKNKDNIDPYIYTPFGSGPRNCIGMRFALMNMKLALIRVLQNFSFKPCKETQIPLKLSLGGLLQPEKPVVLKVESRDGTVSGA

Sequence of Mitogen-activated protein kinase 14 (Q16539 whole entry): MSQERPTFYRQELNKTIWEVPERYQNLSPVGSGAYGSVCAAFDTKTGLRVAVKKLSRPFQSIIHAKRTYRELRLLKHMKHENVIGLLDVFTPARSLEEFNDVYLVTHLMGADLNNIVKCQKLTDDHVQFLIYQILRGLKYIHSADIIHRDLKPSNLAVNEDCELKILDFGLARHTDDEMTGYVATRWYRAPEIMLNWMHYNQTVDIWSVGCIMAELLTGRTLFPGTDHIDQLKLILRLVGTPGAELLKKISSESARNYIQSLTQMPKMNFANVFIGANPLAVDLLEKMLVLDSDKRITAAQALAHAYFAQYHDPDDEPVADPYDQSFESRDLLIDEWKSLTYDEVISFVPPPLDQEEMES
Sequence of CYP2D6 (P10635 whole entry): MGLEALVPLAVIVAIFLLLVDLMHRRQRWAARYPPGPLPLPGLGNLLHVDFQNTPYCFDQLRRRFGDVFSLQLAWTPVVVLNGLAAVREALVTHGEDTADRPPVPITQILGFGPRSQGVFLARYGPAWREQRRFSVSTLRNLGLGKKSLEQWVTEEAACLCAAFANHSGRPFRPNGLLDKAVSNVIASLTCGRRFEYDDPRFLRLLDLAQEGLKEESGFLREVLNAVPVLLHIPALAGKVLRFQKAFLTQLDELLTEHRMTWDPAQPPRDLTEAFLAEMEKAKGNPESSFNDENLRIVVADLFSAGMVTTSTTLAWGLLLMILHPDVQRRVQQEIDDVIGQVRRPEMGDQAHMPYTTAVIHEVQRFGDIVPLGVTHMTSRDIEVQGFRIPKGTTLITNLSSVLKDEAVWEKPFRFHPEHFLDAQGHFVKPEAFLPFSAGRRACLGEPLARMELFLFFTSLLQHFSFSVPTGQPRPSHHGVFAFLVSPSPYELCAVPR

Row | SMILES | IC50 [1] [µM] | further results
1 | Cc1ccccc1C(=O)c1ccc(Nc2ccccc2)cc1Cl | 0.19 | –
2 | Nc1cc(F)ccc1Nc1ccc2c(c1)OCc1ccccc1C2=O | 0.038 | –
3 | Nc1ccccc1Nc1ccc2c(c1)CCc1ccccc1C2=O | – | inhibition at 10 µM [2]: 42%; inhibition at 10 µM [3]: 53%; inhibition at 10 µM [4]: 70%
4 | Nc1ccccc1Nc1ccc2c(c1)COc1ccccc1C2=O | 3.06 | –
5 | Nc1ccc(Nc2ccc3c(c2)OCc2ccccc2C3=O)c(F)c1 | 1.32 | –
6 | Nc1ccc(Nc2ccc3c(c2)OCc2ccccc2C3=O)c(N)c1 | > 5 | –
7 | Nc1ccc(Nc2ccc3c(c2)CCc2ccccc2C3=O)cc1 | 1.17 | –
8 | Nc1ccc(Nc2ccc3c(c2)OCc2ccccc2C3=O)cc1 | > 5 | –
9 | Nc1ccccc1Nc1ccc2c(=O)c3ccccc3ccc2c1 | 1.06 | –
10 | Nc1ccccc1Nc1ccc2c(c1)SCc1ccccc1C2=O | 0.196 | –
11 | O=C1c2ccccc2COc2cc(Nc3ccc(Br)cc3Br)ccc21 | > 5 | –
12 | Nc1cccc(Nc2ccc3c(c2)OCc2ccccc2C3=O)c1 | 1.22 | –
13 | O=C1c2ccccc2COc2cc(Nc3ccc(Cl)cc3Cl)ccc21 | 3.02 | –
14 | O=C1c2ccccc2COc2cc(Nc3ccc(F)cc3F)ccc21 | 0.239 | –
15 | C[S+]([O-])c1ccc(-c2nc(-c3ccncc3)c(-c3ccc(F)cc3)[nH]2)cc1 (centres undefined) [SB-203580] | – | inhibition at 10 µM [2]: 73%; inhibition at 10 µM [3]: 92%; inhibition at 10 µM [4]: 77%
